# Literature values in patent US6329550A, “Amidomalonamides useful as inhibitors of MMP of matrix metalloproteinase” (Aventis Pharmaceuticals Inc., priority 1999, dated 2001).
# Test system: B16-BL6 murine melanoma
# Conditions: intraperitoneal administration; lung colonies produced by intravenous injection of B16-BL6 murine melanoma in C57BL/6N mice
structure (smiles),measurement,value
CNC(=O)[C@H](Cc1ccccc1)NC(=O)[C@H](CC(C)C)[C@H](CSc1cccs1)C(=O)NO [batimastat],growth and metastatic spread and number of lung colonies,significant inhibition
